Laboratory results reported in patent EP1377579B1 (Aventis Pharmaceuticals Inc., priority 2000, dated 2002).

Key:
in vivo = details: male, Hsd:ICR (CD-1), mouse, plasma
Colo-205 = assay: In vitro proliferation assay (MTT), Colo-205; type: cell-based; details: Homo sapiens, COLO 205; MTT assay; value (SD, n) where given; read-out: Colo-205 Colon (IC50 µM)
How it was run: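 After 3 days of compound exposure, MTT was added to Colo-205 cultures for 2–4 h at 37 °C. Formazan was dissolved in DMSO and absorbance read at 570 nm. Cells had been plated at 1000–2500/well and left to recover overnight; IC50 values came from the raw readings.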

[1] = test system: PC-3 Human Prostate Tumors; assay: PC-3 human prostate tumor xenograft in nude mice; type: in vivo; set-up: unit not given here; details: Table 4
Method: Antitumor efficacy is assessed using two subcutaneous human tumor xenograft models. The studies are performed using conventional assay techniques. Briefly, HL-60 (leukemia, 5 x10^5 cells) and PC-3 (prostate, 5 x 10^6 cells) tumor cells are injected subcuateously into nude mice (Crl-CD1-Br-nu, Charles River Laboratory, Wilmington, MA). Dosing with compounds began when tumors reached 50 to 100 mm^3. The dose route/schedule for the test compounds is ip/qld (5x/wk). The test doses are set based on the maximum tolerated dose (MTD). […] The test doses for the efficacy studies are set at 1/3rd the MTD (low dose) and the MTD (high dose). The results are shown in Tables 4 and 5 (HL-60, leukemia) (PC-3, prostate cancer). The length of the treatment phase is dependent on the tumor growth rate for the two models. This treatment phase is typically about 3 weeks for the HL-60 model and about 5 weeks for the PC-3 model. […] Dosing with flavopiridol is for the same time frame as for the experimental compounds in both xenograft models. Tumor volume (twice weekly) and body weights (once weekly) are monitored throughout the course of the treatment phase of the experiment. Tumor sizes are measured by external caliper measurements of protruding tumor. Volumes are calculated using the following formula: volume =½ (a x b2), where b is the smaller of two perpendicular diameters.

cdk2/cyclin E = cdk2/cyclin E (Homo sapiens, UniProt P24941); assay: Cyclin-dependent kinase assay, cdk2/cyclin E; details: CDK2 IC50, nM, GST-pRb substrate, 10 µM ATP
[2] = Red blood cell binding, human whole blood; type: in vitro ADME; details: 30 minutes at 37°C, 500 ng/ml
Method: Compounds, including one positive control, are assessed for red blood cell (RBC) uptake, using a modified procedure based on the protocol reported in Sun, J.X.S., et al. High-performance liquid chromatographic analysis, plasma protein binding and red blood cell partitioning of phenprobamate. Biopharmaceutics and Drug Disposition, 8 (1987) 341-351.
Briefly, RBC uptake is evaluated by comparison of the levels in spiked plasma (n=3) and plasma isolated from spiked whole blood (n=3). Compounds are incubated with human and mouse whole blood, respectively, for 30 minutes at 37°C using a nominal concentration of 500 ng/ml. Following centrifugation, the plasma is removed and submitted for analysis. Each compound is also spiked into blank plasma at a nominal concentration of 500 ng/ml, and submitted for analysis. Levels in the two plasma samples (Cp' and Cp in the equation below) and the blood hematocrit are used to determine the red blood cell to plasma ratio (Crbc/Cp). (Crbc)/(Cp) = (Cpʹ)/(Cp•H)-((1-H))/(H) [formula] In equation 1, Cp' is the level of drug in the spiked "blank" plasma, Cp is the level of drug in the plasma of spiked whole blood, and H is the hematocrit. The hematocrit values are determined as 0.4 for human whole blood and 0.41 for mouse whole blood. The samples are analyzed with ESI LC/MS, using positive ion detection with an internal standard.
The red blood cell to plasma ratio is determined for each compound using equation 1. Tables 6 and 7 summarize the respective mean Crbc/Cp values and standard deviations for mouse and human whole blood, respectively, in descending order based on the red blood cell to plasma ratio, where"*" denotes Positive Control, and "ND" denotes Not Determined. MDL 108552 is included as a positive control for red blood cell uptake. Table 6. Red Blood Cell to Plasma Ratio for compounds in mouse whole blood

NCI-H460 = assay: In vitro proliferation assay (MTT), NCI-H460; type: cell-based; details: Homo sapiens, NCI-H460; MTT assay; value (SD, n) where given; read-out: H-460 Lung (IC50 µM)
How it was run: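 IC50 values come from live-cell estimates based on MTT reduction measured at 570 nm after 3 days of compound treatment. Cells are seeded at 1000 to 2500 per well in serum-supplemented RPMI 1640. They are stained with MTT for 2 to 4 hr at 37 C and the dye is then taken up in DMSO.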

Compound	AUC(0-inf) (in vivo; iv, 3 mg/kg)	Cmax (in vivo; iv, 3 mg/kg)	half-life (in vivo; iv, 3 mg/kg)	concentration at 0.083 h (in vivo; iv, 18 mg/kg)	concentration at 0.25 h (in vivo; iv, 18 mg/kg)	concentration at 0.5 h (in vivo; iv, 18 mg/kg)	concentration at 1 h (in vivo; iv, 18 mg/kg)	concentration at 3 h (in vivo; iv, 18 mg/kg)	concentration at 6 h (in vivo; iv, 18 mg/kg)	concentration at 8 h (in vivo; iv, 18 mg/kg)	IC50 (Colo-205)	PC-3 Mean Vol. ± SD ([1]; dose 3 mg/kg ip)	PC-3 Mean Vol. ± SD ([1]; dose 10 mg/kg ip)	IC50 (cdk2/cyclin E)	Mean Red Blood Cell to Plasma Ratio [2]	IC50 (NCI-H460)	concentration at 0.083 h (in vivo; intravenous, 3 mg/kg)	concentration at 0.25 h (in vivo; intravenous, 3 mg/kg)	concentration at 0.5 h (in vivo; intravenous, 3 mg/kg)	concentration at 1 h (in vivo; intravenous, 3 mg/kg)	further results
Cl.Cl.N#Cc1ccc(S(=O)(=O)N2CCC(Nc3nc(N[C@H]4CC[C@H](N)CC4)nc4c3ncn4C3CCCC3)CC2)cc1 [compound 109, trans-N^2-(4-Amino-cyclohexyl)-9-cyclopentyl-N^6-[1-(4-cyano-benzenesulfonyl)-piperidin-4-yl]-9H-purine-2,6-diamine dihydrochloride]	1110 ng·h/mL	1690 ng/mL	2 h	1690 ± 224 ng/mL	915 ± 15.2 ng/mL	514 ± 45.2 ng/mL	238 ± 38.7 ng/mL	30.1 ± 8.5 ng/mL	9.5 ± 1.8 ng/mL	5.5 ± 0.9 ng/mL	0.18 µM	1807 ± 1388	979 ± 734	45 nM	5.0	0.25 µM	–	–	–	–	–
COC(=O)c1ccccc1S(=O)(=O)N1CCC(Nc2nc(N[C@H]3CC[C@H](N)CC3)nc3c2ncn3C2CCCC2)CC1.Cl.Cl [compound 111, trans-2-{4-[2-(4-Amino-cyclohexylamino)-9-cyclopentyl-9H-purin-6-ylamino]-piperidine-1-sulfonyl}-benzoic acid methyl ester dihydrochloride]	1460 ng·h/mL	2450 ng/mL	2 h	2450 ± 287 ng/mL	1090 ± 129 ng/mL	588 ± 29.3 ng/mL	335 ± 81.3 ng/mL	33.8 ± 6.8 ng/mL	10.9 ± 3 ng/mL	6 ± 2 ng/mL	0.09 µM	1083 ± 704	2114 ± 1320	9 nM	1.2	0.28 µM	–	–	–	–	–
Cl.Cl.N[C@H]1CC[C@H](Nc2nc(NC3CCN(S(=O)(=O)c4cccc(C(F)(F)F)c4)CC3)c3ncn(C4CCCC4)c3n2)CC1 [compound 112, trans-N^2-(4-Amino-cyclohexyl)-9-cyclopentyl-N^6-[1-(3-trifluoromethyl-benzenesulfonyl)-piperidin-4-yl]-9H-purine-2,6-diamine dihydrochloride]	1460 ng·h/mL	2810 ng/mL	2.8 h	–	–	–	–	–	–	–	< 0.02 µM	–	–	48 nM	3.7	0.07 µM	2810 ± 272 ng/mL	1700 ± 312 ng/mL	435 ± 48 ng/mL	175 ± 42.4 ng/mL	concentration at 3 h (in vivo; intravenous, 3 mg/kg): 45 ± 7.2 ng/mL; concentration at 6 h (in vivo; intravenous, 3 mg/kg): 17.7 ± 1.7 ng/mL; concentration at 8 h (in vivo; intravenous, 3 mg/kg): 13.6 ± 3.7 ng/mL; PC-3 Mean Vol. ± SD ([1]; dose 0.3 mg/kg ip): 1302 ± 869; PC-3 Mean Vol. ± SD ([1]; dose 1 mg/kg ip): 1155 ± 872
Cl.Cl.N[C@H]1CC[C@H](Nc2nc(NC3CCN(C(=O)Nc4ccc(C(F)(F)F)cc4)CC3)c3ncn(C4CCCC4)c3n2)CC1 [compound 149, trans-4-[2-(4-Amino-cyclohexylamino)-9-cyclopentyl-9H-purin-6-ylamino]-piperidine-1-carboxylic acid (4-trifluoromethyl-phenyl)-amide dihydrochloride]	1020 ng·h/mL	3110 ng/mL	1.6 h	–	–	–	–	–	–	–	0.09 µM	2089 ± 1382	–	51 nM	2.8	0.32 µM	3110 ± 703 ng/mL	419 ± 69.8 ng/mL	133 ± 10.2 ng/mL	59.8 ± 17.3 ng/mL	concentration at 3 h (in vivo; intravenous, 3 mg/kg): 15.5 ± 4.8 ng/mL; concentration at 6 h (in vivo; intravenous, 3 mg/kg): 4.1 ± 2.1 ng/mL; concentration at 8 h (in vivo; intravenous, 3 mg/kg): 5.4 ± 0.5 ng/mL; PC-3 Mean Vol. ± SD ([1]; dose 1 mg/kg ip): 1084 ± 929
CCOC(=O)c1ccc(NC(=O)N2CCC(Nc3nc(N[C@H]4CC[C@H](N)CC4)nc4c3ncn4C3CCCC3)CC2)cc1.Cl.Cl [compound 154, trans-4-[(1-{4-[2-(4-Amino-cyclohexylamino)-9-cyclopentyl-9H-purin-6-ylamino]-piperidin-1-yl}-methanoyl)-amino]-benzoic acid ethyl ester dihydrochloride]	1580 ng·h/mL	4850 ng/mL	0.8 h	4850 ± 794 ng/mL	1130 ± 243 ng/mL	377 ± 73.2 ng/mL	126 ± 12.3 ng/mL	8.4 ± 3.1 ng/mL	2.3 ± 1.6 ng/mL	–	0.01 µM	1385 ± 873	1707 ± 721	30 nM	4.1	0.24 µM	–	–	–	–	–
